Assay results published in patent publication US6927213B2, “Cationic cholesteryl derivatives containing cyclic polar groups” (University of Pittsburgh, priority 1996, dated 2005).
“Also recorded” adds a separate entry of the source. Where two headings read alike, the source gives them in different places.

How the values were obtained:
CHO cells [1] = test: Transfection of CHO cells with pCMV-Luc DNA:lipid complexes, luciferase activity; format: cell-based, Chinese Hamster; settings: for luciferase activity (transfection activity): 1 μg pCMV-Luc DNA, liposomes DOPE:cationic lipid 1:1 mol:mol, absence of serum, 36 hours after transfection
CHO cells [2] = test system: CHO cells
CHO cells [3] = test: Toxicity of lipids: protein per well 36 hours after transfection, CHO cells
293 cells = test: Transfection of 293 cells with pCMV-Luc DNA:lipid complexes, luciferase activity; format: cell-based, human; settings: DOPE:lipid 1:1 mol:mol, FIG. 7
Method: (§1) 2 μmol of Lipid dissolved in chloroform was transferred to a test tube. A solution of DOPE (2 umol) in chloroform was then added to this test tube. The chloroform was evaporated by passing a stream of nitrogen through the test tube to obtain a thin film of at the bottom of the test tube. Further drying was done in a desiccator under high vacuum for 30 minutes. 2 ml of distilled water was then added to the test tubes. The test tubes were stoppered and vortexed for one minute followed by sonication until the size of the particles was between 100 to 200 nm. The size of the particles was measured by Coulter particle size analyzer.
(§2) CHO, 293 and BL6 cells were obtained from the American Type Culture Collection (ATCC). Chinese Hamster Ovarian (“CHO”) cells were maintained in F-12 nutrient medium supplemented with 10% fetal bovine serum, antibiotics (1% penicillin-streptomycin) and 1% glutamine; human embryonic kidney 293 cells and murine melanoma BL6 cells were cultured in DMEM medium supplemented with 10% fetal bovine serum, antibiotics (1% penicillin-streptomycin) and 1% glutamine. […]
(§3) Luciferase activity was assayed by measuring the luminescence obtained after adding the substrate (Promega) to in aliquot of lysate. This luminescence was measured in a luminometer for 25 seconds.

BL6 cells [4] = test: Transfection of BL6 cells with pCMV-Luc DNA:lipid complexes, luciferase activity; format: cell-based, murine; settings: DOPE:lipid 1:1 mol:mol, FIG. 8
Method: as §1, §2, §3

HeLa = test: Transfection of HeLa cells; format: cell-based; settings: data not shown
Method: (§4) Lipid 5 was further compared with DC-Chol by transfecting BL6 cells with lipid 5- or DC-Chol-containing DNA:lipid complexes (FIGS. 7 and 8 respectively). […] Lipid 5 was also tested in several cell lines including HeLa, Siha and Caski which are somewhat difficult to transfect when compared with CHO or 293 cells.

Siha = test: Transfection of Siha cells; format: cell-based; settings: data not shown
Method: as §4

Caski = test: Transfection of Caski cells; format: cell-based; settings: data not shown
Method: as §4

BL6 cells [5] = test: Toxicity of lipids: protein per well 36 hours after transfection, BL6 cells; format: cell-based, murine; settings: DOPE:lipid 1:1, FIG. 10
Method: Toxicity was assayed by measuring the amount of protein remaining in each well 36 hours after treatment with the indicated amount of liposome.
The toxicity of lipids was assayed by measuring the protein concentration in each well by Coomassie blue reagent (Píerce) 36 hours after transfection. Greater concentrations of protein per well indicated less toxicity of the tested lipids.
FIGS. 9 and 10 show the toxicity of lipid 5 compared to that of DC-Chol in CHO and BL6 cells respectively, where toxicity was assessed by measuring the amount of protein in each well after transfection of cells with DNA:lipid complexes formulated by mixing DNA and liposomes containing DOPE and DC-Chol or DOPE and lipids.

[6] = Stability of liposomes, retention of diameter over time; format: physicochemical; settings: all lipid 5:DOPE ratios shown in FIG. 11
Method: as §1
The X axis of FIG. 11 refers to the total liposomal lipid mixed with 1 μg pCMV-Luc DNA:lipid complexes.

CHO cells [7] = test: Serum sensitivity of transfection of CHO cells; format: cell-based, Chinese Hamster; settings: 1 μg DNA, 10% serum
Mice = test: In vivo transfection with pCMV-Luc DNA:lipid complexes; settings: intratumoral or intravenous, 30 μg pCMV-Luc DNA with 30 nmols liposomal lipid (1:1 lipid 5:DOPE), 1-5 days
Method: Mice are injected intratumorally or intravenously with 50 μl of solution containing pCMV-Luc DNA (30 μg) complexed with 30 nmols of liposomal lipid (1:1 mol/mol lipid 5:DOPE). Animals are sacrificed 1-5 days later and extracts from tumor tissue (intratumor injection) or lung, liver and blood (intravenous injection) are assayed for luciferase activity and protein levels.

In the case of `CC(C)CCC[C@@H](C)[C@H]1CC[C@H]2[C@@H]3CC=C4C[C@@H](OC(=O)NCCN5CCCC5)CC[C@]4(C)[C@H]3CC[C@]12C` [lipid 6, {N-2-ethylamino[(3′-β-cholesteryl)carbamoyl]}pyrrolidine], the “luciferase activity (transfection activity)” value (“luciferase activity” below) (CHO cells [1]) is reported as “less active than DC-Chol” and the “toxicity relative to DC-Chol” value (CHO cells [2]) is reported as “less toxic than DC-Chol”.
With “pyridyl (ethyl) carbamoyl cholesteryl [lipid PY]” the “luciferase activity” value (CHO cells [1]) was “much less active” and the “toxicity relative to DC-Chol” value (CHO cells [3]) was “comparable toxicity to DC-Chol”.
In the case of `CC(C)CCC[C@@H](C)[C@H]1CC[C@H]2[C@@H]3CC=C4C[C@@H](OC(=O)NCCN5CCNCC5)CC[C@]4(C)[C@H]3CC[C@]12C` [lipid 2, 4{N-2-ethylamino[(3′-β-cholesteryl)carbamoyl]}piperazine], the “luciferase activity” value (CHO cells [1]) is reported as “low activity”.
With `CC(C)CCC[C@@H](C)[C@H]1CC[C@H]2[C@@H]3CC=C4C[C@@H](OC(=O)NN5CCN(C)CC5)CC[C@]4(C)[C@H]3CC[C@]12C` [lipid 5, N-methyl{4-N-amino[(3′-β-cholesteryl)carbamoyl]}piperazine] the “luciferase activity” value (CHO cells [1]) was “lipid 5>DC-Chol>lipid 4; also recorded: high activity”, the “transfection activity (luciferase)” value (CHO cells [1]; lipid 5:DOPE ratio of 2:8, FIG. 11) was “less activity” and the “transfection activity (luciferase)” value (CHO cells [1]; lipid 5:DOPE ratio of 4:6, FIG. 11) was “very similar transfection activities”. The “transfection activity (luciferase)” value (CHO cells [1]; lipid 5:DOPE ratio of 5:5, FIG. 11) was “very similar transfection activities”, the “transfection activity (luciferase)” value (CHO cells [1]; lipid 5:DOPE ratio of 6:4, FIG. 11) was “highest activity among all complexes” and the “transfection activity (luciferase)” value (CHO cells [1]; lipid 5:DOPE ratio of 8:2, FIG. 11) was “less activity”. The “luciferase activity” value (293 cells) was “almost equally as active as DC-Chol”, the “luciferase activity” value (BL6 cells [4]) was “almost equally as active as DC-Chol” and the “ability to transfect cells” value (HeLa) was “slightly better than DC-Chol”. For the same molecule, the “ability to transfect cells” value (Siha) was “slightly better than DC-Chol”, the “ability to transfect cells” value (Caski) was “slightly better than DC-Chol” and the “toxicity: amount of protein in each well after transfection” value (BL6 cells [5]) was “more protein than cells transfected with DC-Chol-containing complex”. The “liposome stability (retention of diameter over time)” value [6] was “stable liposomes”, the “activity retained relative to the 0% serum complexes” value (CHO cells [7]; 5 nmol lipid 5 (1:1 with DOPE)) was “approximately 40%” and the “activity retained relative to the 0% serum complexes” value (CHO cells [7]; 10 nmol lipid 5 (1:1 with DOPE)) was “approximately 40%”. The “activity retained relative to the 0% serum complexes” value (CHO cells [7]; 20 nmol lipid 5 (1:1 with DOPE)) was 10%, the “in vivo transfection activity (luciferase in tissue extracts)” value (Mice) was “exhibit in vivo transfection activity” and the “appearance of transfected cells observed under microscope” value (CHO cells [2]) was “healthy”. The “toxicity relative to DC-Chol” value (CHO cells [3]) was “reduced toxicity” and the “toxicity: amount of protein in each well after transfection” value (CHO cells [3]; CHO cells, DOPE:lipid 1:1, 36 hours, FIG. 9) was “more protein than cells transfected with DC-Chol-containing complex”.
In the case of “(imidazole) propyl carbamoyl cholesteryl [lipid IM]”, the “luciferase activity” value (CHO cells [1]) is reported as “slightly less active than DC-Chol”.
With `CC(C)CCC[C@@H](C)[C@H]1CC[C@H]2[C@@H]3CC=C4C[C@@H](OC(=O)NCCN(C)C)CC[C@]4(C)[C@H]3CC[C@]12C` [DC-Chol, 3β [N-(N′,N′-dimethylaminoethane)carbamoyl] cholesterol, reference compound] the “luciferase activity” value (CHO cells [1]) was “lipid 5>DC-Chol>lipid 4” and the “appearance of transfected cells observed under microscope” value (CHO cells [3]; cell line (CHO or BL6) not specified, data not shown) was “some necrosis”.
In the case of `CC(C)CCC[C@@H](C)[C@H]1CC[C@H]2[C@@H]3CC=C4C[C@@H](OC(=O)NCCN5CCCCC5)CC[C@]4(C)[C@H]3CC[C@]12C` [lipid 7, {N-2-ethylamino[(3′-β-cholesteryl)carbamoyl]}piperidine], the “luciferase activity” value (CHO cells [1]) is reported as “less active than DC-Chol” and the “toxicity relative to DC-Chol” value (CHO cells [2]) is reported as “less toxic than DC-Chol”.
For `CC(C)CCC[C@@H](C)[C@H]1CC[C@H]2[C@@H]3CC=C4C[C@@H](OC(=O)NCCCN5CCOCC5)CC[C@]4(C)[C@H]3CC[C@]12C` [lipid 4], the “luciferase activity” value (CHO cells [1]) was “lipid 5>DC-Chol>lipid 4; also recorded: reasonable activity”.
In the case of `CC(C)CCC[C@@H](C)[C@H]1CC[C@H]2[C@@H]3CC=C4C[C@@H](OC(=O)NCCN5CCOCC5)CC[C@]4(C)[C@H]3CC[C@]12C` [lipid 3, {N-2-ethylamino[(3′-β-cholesteryl)carbamoyl]}morpholine], the “luciferase activity” value (CHO cells [1]) is reported as “low activity”.
